Test results from patent US4734120A, “Dipeptides containing C-terminal phosphinothricin, a process for their preparation and their use for controlling undesirable plant growth” (Hoechst Aktiengesellschaft, priority 1985, dated 1988).

Key:
Assay in all cases: Effect on weeds by the post-emergence technique
Assay type in all cases: in vivo
Settings in all cases: rated visually after approx. 3-4 weeks
[1] = test system: Chrysanthemum segetum corn marigold
Method: (§1) The damage caused to weed plants or the toleration by crop plants was rated by means of a code in which the activity is expressed by valuation numbers from 0 to 5. These have the following meanings:
(§2) Seeds or pieces of rhizome of monocotyledonous and dicotyledonous weeds were laid out in sandy loam soil in plastic pots (.phi.=9 l cm), covered with soil and cultivated in a greenhouse under good conditions for growth. The test plants were treated in the three leaf stage three weeks after sowing.
(§3) The compounds according to the invention, formulated as wettable powders, as emulsion concentrates or as aqueous solutions, were sprayed onto the green parts of the plants at various dosages and at a water application rate equivalent to 600 l/hectare, and the effect of the preparations was rated visually in comparison with untreated controls after the test plants had stood for approx. 3-4 weeks in a greenhouse under optimum conditions for growth (temperature 23 plus/minus 1° C.; relative humidity 60-80%). The agents according to the invention display a good herbicidal activity in the post-emergence technique against a broad spectrum of grass-like weeds and weeds of economic importance.

[2] = test system: Echinochloa crusgalli barnyardgrass
Method: as §1, §2, §3

[3] = test system: Sinapis alba (white mustard)
Method: as §1, §2, §3

[4] = test system: Stellaria media (starwort)
Method: as §1, §2, §3

Avena fatua (wild oats) = test system: Avena fatua (wild oats)
Method: as §1, §2, §3

[5] = test system: Setaria lutescens foxtail
Method: as §1, §2, §3

Compound: CP(=O)(O)CCC(NC(=O)[C@@H](N)CCCCN)C(=O)O (some centres unmarked) [Example 72]
- Herbicidal effect CRS ([1]; 2.4 kg of a.i./hectare): 5 (5=80-100% effect or damage)
- Herbicidal effect ECG ([2]; 2.4 kg of a.i./hectare): 5 (5=80-100% effect or damage)
- Herbicidal effect SIA ([3]; 2.4 kg of a.i./hectare): 5 (5=80-100% effect or damage)
- Herbicidal effect STM ([4]; 2.4 kg of a.i./hectare): 5 (5=80-100% effect or damage)

Compound: CC(C)C[C@H](N)C(=O)NC(CCP(C)(=O)O)C(=O)O (some centres unmarked) [Example 24]
- Herbicidal effect CRS ([1]; 2.4 kg of a.i./hectare): 5 (5=80-100% effect or damage)
- Herbicidal effect ECG ([2]; 2.4 kg of a.i./hectare): 5 (5=80-100% effect or damage)
- Herbicidal effect SIA ([3]; 2.4 kg of a.i./hectare): 5 (5=80-100% effect or damage)
- Herbicidal effect STM ([4]; 2.4 kg of a.i./hectare): 5 (5=80-100% effect or damage)

Compound: CP(=O)(O)CCC(NC(=O)C(N)c1ccccc1)C(=O)O (centres unmarked) [Example 34]
- Herbicidal effect AVF (Avena fatua (wild oats); 0.6 kg of a.i./hectare): 3 (3=40-60% effect or damage)
- Herbicidal effect AVF (Avena fatua (wild oats); 2.4 kg of a.i./hectare): 4 (4=60-80% effect or damage)
- Herbicidal effect CRS ([1]; 0.6 kg of a.i./hectare): 5 (5=80-100% effect or damage)
- Herbicidal effect CRS ([1]; 2.4 kg of a.i./hectare): 5 (5=80-100% effect or damage)
- Herbicidal effect ECG ([2]; 0.6 kg of a.i./hectare): 5 (5=80-100% effect or damage)
- Herbicidal effect ECG ([2]; 2.4 kg of a.i./hectare): 5 (5=80-100% effect or damage)
- Herbicidal effect SAL ([5]; 0.6 kg of a.i./hectare): 4 (4=60-80% effect or damage)
- Herbicidal effect SAL ([5]; 2.4 kg of a.i./hectare): 5 (5=80-100% effect or damage)
- Herbicidal effect SIA ([3]; 0.6 kg of a.i./hectare): 5 (5=80-100% effect or damage)
- Herbicidal effect SIA ([3]; 2.4 kg of a.i./hectare): 5 (5=80-100% effect or damage)
- Herbicidal effect STM ([4]; 0.6 kg of a.i./hectare): 4 (4=60-80% effect or damage)
- Herbicidal effect STM ([4]; 2.4 kg of a.i./hectare): 5 (5=80-100% effect or damage)

Compound: CP(=O)(O)CCC(NC(=O)[C@@H](N)Cc1ccccc1)C(=O)O (mixture of isomers) [Example 2, N-L-phenylalanyl-DL-phosphinothricin]
- Herbicidal effect AVF (Avena fatua (wild oats); 0.6 kg of a.i./hectare): 5 (5=80-100% effect or damage)
- Herbicidal effect AVF (Avena fatua (wild oats); 2.4 kg of a.i./hectare): 5 (5=80-100% effect or damage)
- Herbicidal effect CRS ([1]; 0.6 kg of a.i./hectare): 5 (5=80-100% effect or damage)
- Herbicidal effect CRS ([1]; 2.4 kg of a.i./hectare): 5 (5=80-100% effect or damage)
- Herbicidal effect ECG ([2]; 0.6 kg of a.i./hectare): 5 (5=80-100% effect or damage)
- Herbicidal effect ECG ([2]; 2.4 kg of a.i./hectare): 5 (5=80-100% effect or damage)
- Herbicidal effect SAL ([5]; 0.6 kg of a.i./hectare): 5 (5=80-100% effect or damage)
- Herbicidal effect SAL ([5]; 2.4 kg of a.i./hectare): 5 (5=80-100% effect or damage)
- Herbicidal effect SIA ([3]; 0.6 kg of a.i./hectare): 5 (5=80-100% effect or damage)
- Herbicidal effect SIA ([3]; 2.4 kg of a.i./hectare): 5 (5=80-100% effect or damage)
- Herbicidal effect STM ([4]; 0.6 kg of a.i./hectare): 4 (4=60-80% effect or damage)
- Herbicidal effect STM ([4]; 2.4 kg of a.i./hectare): 5 (5=80-100% effect or damage)

Compound: CC(C)C(N)C(=O)NC(CCP(C)(=O)O)C(=O)O (racemic) [Example 1, N-Dl-valyl-DL-phosphinothricin]
- Herbicidal effect AVF (Avena fatua (wild oats); 0.6 kg of a.i./hectare): 4 (4=60-80% effect or damage)
- Herbicidal effect AVF (Avena fatua (wild oats); 2.4 kg of a.i./hectare): 5 (5=80-100% effect or damage)
- Herbicidal effect CRS ([1]; 0.6 kg of a.i./hectare): 5 (5=80-100% effect or damage)
- Herbicidal effect CRS ([1]; 2.4 kg of a.i./hectare): 5 (5=80-100% effect or damage)
- Herbicidal effect ECG ([2]; 0.6 kg of a.i./hectare): 5 (5=80-100% effect or damage)
- Herbicidal effect ECG ([2]; 2.4 kg of a.i./hectare): 5 (5=80-100% effect or damage)
- Herbicidal effect SAL ([5]; 0.6 kg of a.i./hectare): 4 (4=60-80% effect or damage)
- Herbicidal effect SAL ([5]; 2.4 kg of a.i./hectare): 5 (5=80-100% effect or damage)
- Herbicidal effect SIA ([3]; 0.6 kg of a.i./hectare): 5 (5=80-100% effect or damage)
- Herbicidal effect SIA ([3]; 2.4 kg of a.i./hectare): 5 (5=80-100% effect or damage)
- Herbicidal effect STM ([4]; 0.6 kg of a.i./hectare): 4 (4=60-80% effect or damage)
- Herbicidal effect STM ([4]; 2.4 kg of a.i./hectare): 5 (5=80-100% effect or damage)
